These results are taken from article PMC8111447 (Frontiers in Pharmacology, 2021).

Read-outs that look alike come from different tables or passages of the source.

Data set [1] concerns EGFR phosphorylation (pY1068) in A431 cells. Description: Phosphorylation of EGFR assay, time course. It counts as cell-based, human. The settings on record: 0.1 μmol/L, 1-10 h, EGF stimulated. On the procedure:
(§1) Cells (NCI-H1975/PC-9/[…]) were seeded into a 384-well plate (10,000 cells/well), grown for 24 h, and then treated with different test compounds (0.1 μmol/L) for 1, 2, 4, 6, 8 and 10 h. A431 cells were stimulated with 100 ng/ml EGF after incubation for 10 min. Cells were washed with ice-cold HBSS before extraction with 25 μl cell lysis buffer. Phosphorylation of EGFR was measured using a sandwich ELISA assay with phospho-specific EGFR (pY1068) antibodies [AlphaLISA SureFire p-EGF Receptor (Tyr1068) Assay Kit, PerkinElmer].

Data set [2] relates to EGFR phosphorylation (pY1068) in NCI-H1975 cells. Nature of the data set: Phosphorylation of EGFR assay, time course. It counts as cell-based, human. The settings on record: 0.1 μmol/L, 1-10 h. How it is done:
as §1

For data set [3], the system named is EGFR phosphorylation (pY1068) in PC-9 cells. Nature of the data set: Phosphorylation of EGFR assay, time course. Format: cell-based, human. The settings on record: 0.1 μmol/L, 1-10 h. On the procedure: as §1
The test system of data set [4] is NCI-H1975 (L858R/T790M) xenograft. Nature of the data set: NCI-H1975 xenograft model. It counts as in vivo, Nu/Nu nude mice. To be noted: for tumor growth inhibition rate: after 14 days of dosing, vs vehicle. How it is done:
(§2) The female Nu/Nu nude mice were purchased from Beijing Vital River Laboratories. […] Nu/Nu nude mice were purchased from the Beijing Vital River Laboratories of China. The 6–8 weeks old female mice were inoculated subcutaneously at the right flank with approximately 3–5 × 10^6 tumor cells in 0.2 ml of medium. The treatments were started when the tumor size reached approximately 200 mm^3. […] All mice were orally administrated once daily for consecutive 14 days. Mouse body weight, tumor weight and tumor volume (TV) were measured twice per week. TV was then used for the calculation of tumor inhibitory rate and tumor regression rate.

Data set [5] has as its system PC-9 (exon 19 del) xenograft. Description: PC-9 xenograft model. Format: in vivo, Nu/Nu nude mice. The settings on record: oral, 2.5 to 15 mg/kg. On the procedure: as §2
The test system of data set [6] is A431 (wild-type EGFR) tumor xenografts. Description: A431 xenograft model. Format: in vivo, Nu/Nu nude mice. To be noted: 5 mg/kg/day. How it is done:
as §2

Data set [7] relates to phosphorylation of EGFR and ERK. Nature of the data set: Immunohistochemistry of tumor tissue from NCI-H1975 xenograft model. To be noted: 6–24 h. Format: in vivo, Nu/Nu nude mice. On the procedure:
Paraffin-embedded tumor tissues from each group were sectioned, mounted on positively charged glass slides, baked, deparaffinized, and rehydrated. Antigen retrieval was performed by heating slides in EDTA (pH 8.0) for 10 min. Sections were incubated in p-EGF Receptor ([…]) Rabbit antibody and Phospho-p44/42 MAPK (Erk1/2) (Thr202/Tyr204) (20G11) Rabbit antibody overnight at 4°C and then incubated with Anti-Rabbit IgG (H + L) at 37°C for 45 min. The sections were then stained with diaminobenzidine (DAB) and visualized.

The nature of data set [8]: Plasma pharmacokinetics in NCI-H1975 tumor-bearing mice. To be noted: for AUC(0-t): po, read-out: AUC0–t in plasma. Format: in vivo. On the procedure:
(§3) NCI-H1975 tumor-bearing mice with tumor burden of approximately 200 mm^3 were used in the pharmacokinetics and pharmacodynamics study. […] Blood samples were collected at 0 (pre-dose), 10, 30 min, 1, 2, 4, 8, and 24 h post-dose.
(§4) Ionization mode. Drug to internal standard peak area ratios for the standards were used to create a calibration curve using 1/×^2 weighted least-squares regression analysis. Concentrations of each analyte were quantified by comparing the ratios for each in-trial sample with those in the relevant calibration curve.

Data set [9] can be described thus: Tissue distribution in NCI-H1975 tumor-bearing mice. It counts as in vivo. On the procedure:
as §3, §4

Data set [10] in a line: Metabolite profiling in liver microsomes. It counts as in vitro ADME. To be noted: incubation 60 min at 37°C; mouse, rat, dog, monkey and human liver microsomes. On the procedure: Metabolite profiling was conducted in mouse, rat, dog, monkey, and human liver microsomes in vitro as well as in rat plasma, feces, and urine samples in vivo (From other experiments). […] All samples were analyzed by the LC/MS/MS (AB Sciex, API 5500 Qtrap) system. The structures of major metabolites were elucidated based on EPI spectra and further verified using authentic standards. The main metabolite Imp3 was quantified in multiple reaction monitoring mode in rat, dog and human clinical samples.

For orientation: Tmax means the time at which the peak concentration occurs. In the case of `C=CC(=O)Nc1cc(Nc2nccc(-c3c4n(c5ccccc35)CCCC4)n2)c(OC)cc1N(C)CCN(C)C` [SH-1028], the figures for the “inhibitory effect on EGFR phosphorylation” value in data set [1], in [2] and in data set [3] were “weak inhibitory effect”, “stronger inhibitory effects on EGFR phosphorylation compared to osimertinib” and “stronger than that of osimertinib”, respectively. Also, the “tumor growth inhibition rate” value in data set [4] (2.5 mg/kg oral once daily) came out at 72.6%; in data set [4] (5 mg/kg oral once daily) it was 91.8%; in data set [4] (15 mg/kg oral once daily), 98.8%. In data set [4] (2.5 to 15 mg/kg oral once daily, 14 days), the body weight entry is reported as “no TKI-induced weight loss”. For the same compound, the figures for the tumor growth entry in data set [5] and in data set [6] were “significant inhibition of tumor cell growth” and “moderate tumor growth inhibition”, respectively. Further, in data set [7], the “phosphorylation levels of EGFR and ERK in tumor tissues” value was “continuously inhibit the phosphorylation of EGFR and ERK”. In addition, the AUC(0-t) in data set [8] (Nu/Nu nude, mouse, plasma, 2.5 mg/kg, 2.5 mg/kg oral daily, Day 14) worked out at 272 ng·h/mL; in data set [8] (Nu/Nu nude, mouse, plasma, 2.5 mg/kg, 2.5 mg/kg oral, Day 1), 118 ng·h/mL; in data set [8] (Nu/Nu nude, mouse, plasma, 5 mg/kg, 5 mg/kg oral daily, Day 14), 308 ng·h/mL; in data set [8] (Nu/Nu nude, mouse, plasma, 5 mg/kg, 5 mg/kg oral, Day 1) it was 300 ng·h/mL; in [8] (Nu/Nu nude, mouse, plasma, 15 mg/kg, 15 mg/kg oral daily, Day 14), 993 ng·h/mL; in [8] (Nu/Nu nude, mouse, plasma, 15 mg/kg, 15 mg/kg oral, Day 1), 931 ng·h/mL. Besides, the Tmax in data set [8] (Nu/Nu nude, mouse, plasma, oral 2.5, 5 and 15 mg/kg) fell in the range of 1.5 to 2 h. The “accumulation between Days 1–14” value in [8] (oral daily dosing for 14 days) was “no significant accumulation”. In addition, the “distribution into tissues (tumor tissues, adjacent lung tissues and brain)” value in [9] (15 mg/kg oral, within 2 h, Day 1) was “rapidly and extensively distributed into tissues”. The blood-brain barrier penetration result in [9] (pharmacokinetic experiments) was “could penetrate the blood-brain barrier”. In addition, the “number of metabolites detected” value in [10] stood at 27.

With `C=CC(=O)Nc1cc(Nc2nccc(-c3c4n(c5ccccc35)CCCC4)n2)c(OC)cc1N(C)CCNC` [Imp3], the “inhibitory effect on EGFR phosphorylation” value in [2] is on record as “stronger inhibitory effects on EGFR phosphorylation compared to osimertinib”.
